Results published in US11389438B2 (CHDI Foundation, Inc., priority 2019, dated 2022).
Where two headings read alike, the source gives them in different places.

Columns and labels:
[1] = molecular target: pre-formed polyQ46 or Exon1-polyQ46 aggregates (mHTT) (Homo sapiens, UniProt P42858, INS38QQQQQQQQQQQQQQQQQQQQQQQQQ); test: Q46_RBA radioligand binding assay (displacement of [3H]-radioligand)
Procedure: Binding of W to mHTT. A radioligand binding assay was developed to screen for compounds which can efficiently displace a radioligand detailed elsewhere (see, e.g., U.S. Patent Publication No. from US 2017/0292150) pre-formed polyQ46 or Exon1-polyQ46 aggregates (Q46_RBA).
Aggregation of polyQ peptides is initiated by cleavage of the tag from a GST-polyQ46 or from a MBP-Exon1-polyQ46 fusion protein. The pre-formed aggregates are then incubated with compounds which compete with the [^3H]-radiolabelled ligand for binding to the aggregates. The readout is a scintillation based MicroBeta measurement of radioligand bound to aggregates. The activity was indicated as: +++, <100 nM; ++, 100-500 nM, +, >500 nM.

[2] = molecular target: mouse CRBN thalidomide binding domain (mCRBN-TBD) (Mus musculus (Mouse), UniProt Q8C7D2); test: CRBN SPR assay; settings: immobilized mCRBN-TBD
mouse CRBN thalidomide binding domain (mCRBN-TBD), sequence (Q8C7D2 321-429): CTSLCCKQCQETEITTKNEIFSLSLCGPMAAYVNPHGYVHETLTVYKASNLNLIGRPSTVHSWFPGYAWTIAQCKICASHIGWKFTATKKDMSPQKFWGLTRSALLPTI
Text: (§1) Surface Plasmon Resonance (SPR) assays have been developed to test the affinity (KD) of VHL or CRBN-based compounds to respective recombinant ligase complex/domain.
(§2) The assays are based on surface plasmon resonance (SPR), which enables to measure the changes of the local refractive index due to changes of molecular mass on a gold chip surface in the case of a binding event and in a flowing system. To detect binding between both partners, the respective E3 ligase is immobilized to the chip surface, while the test compounds are flown over the chip surface at a steady velocity. The detected changes in the RU response are indicative of the binding event and are concentration dependent.
(§3) These tags provide the anchor for the capturing process to either an NTA or Streptavidin coated chip surface (immobilization level of 3,000-5,000 RU). Because of the rather complex structure of the VHL complex, it was additionally coupled to the chip surface by amino coupling to prevent any protein loss by disruption of the complex in the flowing system.
(§4) To detect binding of compounds and extract dissociation constants KD for the tested compounds to the immobilized E3 ligase, concentration response curves of the compounds were recorded. Compounds were usually tested in 10-pt dilutions up to 20 μM final concentration in assay buffer and were flown over the chip at 30 μL/min. The contact time for each cycle includes 90 s for association and 200 s for dissociation of compounds.
(§5) In the following tables, the Kd values are indicated as: +++, <100 nM; ++, 100-500 nM, +, >500 nM.

[3] = molecular target: HTT-Exon1-Q73-EGFP in HeLa cells (soluble mHTT) (Homo sapiens (Human), UniProt P42858, INS38QQQQQQQQQQQQQQQQQQQQQQQQQQQQQQQQQQQQQQQQQQQQQQQQQQQQ); test: HTT degradation assay, soluble mHTT MSD assay; format: cell-based; settings: HeLa cells transfected with Exon1-Q73-EGFP, 22 hr, 0.01-10 μM
HTT-Exon1-Q73-EGFP in HeLa cells (soluble mHTT), sequence (P42858 other isoform, or with tags, fused parts or gaps limits assumed, stated change not applied): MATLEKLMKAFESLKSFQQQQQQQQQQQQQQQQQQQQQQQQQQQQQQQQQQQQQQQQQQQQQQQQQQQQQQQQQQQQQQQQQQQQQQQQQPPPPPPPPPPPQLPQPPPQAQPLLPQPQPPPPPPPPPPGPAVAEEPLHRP
Procedure: (§6) Compounds described herein were tested for efficacy in HTT-lowering in human HeLa cells transiently overexpressing HTT-Exon1-polyQn proteins. For HTT degradation experiments HeLa cells were transiently transfected with pcDNA3.1(+)-hHTT-E1mixQn-EGFP plasmids for transient expression of HTT-Exon1 proteins of different polyQ length (HTT-exon1-Q23/73/145-EGFP). Two hours after transfection the cells were treated with test compounds at 7 concentrations from 0.01 μM to 10 μM (final assay concentration)+DMSO control. After a 22 hr incubation with test compounds the cells were washed with 1×PBS and lysed in MSD lysis buffer (150 mM NaCl; 20 mM Tris ph 7.5; 1 mM EDTA, 1 mM EGTA; 1% Triton X-100, 1× Phosphatase Inh. Cocktail 2, 1× Phosphatase Inh. Cocktail 3, 1× Protease Inh. Cocktail, 10 mM NaF, 1 mM PMSF) for 30 min on ice. […]
(§7) After an additional washing step, 10 μL per sample were transferred to each well of the antibody-coated MSD plate and incubated with shaking for 1 h at RT. […] After washing three times with washing buffer, 35 μL of read buffer T with surfactant (Meso Scale Discovery) were added to each well. […] The obtained readout is the MSD signal intensity for each well. […]

[4] = molecular target: HTT-Exon1-Q73-EGFP in HeLa cells (aggregated HTT) (Homo sapiens (Human), UniProt P42858, INS38QQQQQQQQQQQQQQQQQQQQQQQQQQQQQQQQQQQQQQQQQQQQQQQQQQQQ); test: HTT degradation assay, aggregated HTT MSD assay; format: cell-based; settings: HeLa cells transfected with Exon1-Q73-EGFP, 22 hr, 0.01-10 μM
HTT-Exon1-Q73-EGFP in HeLa cells (aggregated HTT), sequence (P42858 other isoform, or with tags, fused parts or gaps limits assumed, stated change not applied): as the sequence (P42858 other isoform, or with tags, fused parts or gaps limits assumed, stated change not applied) above
Procedure: as §6, §7

[5] = molecular target: VHL complex (VHL, Elongin B, Elongin C, Cul2, Rbx1) (Homo sapiens (Human), UniProt P40337); test: VHL SPR assay; format: binding; settings: immobilized VHL complex; read-out: VHL SPR Kd
VHL complex (VHL, Elongin B, Elongin C, Cul2, Rbx1), sequence (P40337 whole entry, looked up): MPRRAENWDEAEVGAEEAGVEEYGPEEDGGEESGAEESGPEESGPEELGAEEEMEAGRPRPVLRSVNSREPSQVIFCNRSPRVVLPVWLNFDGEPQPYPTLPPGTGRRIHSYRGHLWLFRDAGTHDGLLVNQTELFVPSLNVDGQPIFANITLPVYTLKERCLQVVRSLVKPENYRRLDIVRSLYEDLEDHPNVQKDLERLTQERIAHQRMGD
VHL complex (VHL, Elongin B, Elongin C, Cul2, Rbx1), sequence (Q15370 whole entry partner, looked up): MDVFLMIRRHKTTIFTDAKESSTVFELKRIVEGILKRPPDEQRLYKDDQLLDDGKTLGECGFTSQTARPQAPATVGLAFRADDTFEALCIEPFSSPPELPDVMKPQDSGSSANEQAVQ
VHL complex (VHL, Elongin B, Elongin C, Cul2, Rbx1), sequence (Q15369 whole entry partner, looked up): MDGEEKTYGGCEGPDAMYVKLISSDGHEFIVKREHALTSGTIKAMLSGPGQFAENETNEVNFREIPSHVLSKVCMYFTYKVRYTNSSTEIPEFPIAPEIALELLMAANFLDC
VHL complex (VHL, Elongin B, Elongin C, Cul2, Rbx1), sequence (Q13617 whole entry partner, looked up): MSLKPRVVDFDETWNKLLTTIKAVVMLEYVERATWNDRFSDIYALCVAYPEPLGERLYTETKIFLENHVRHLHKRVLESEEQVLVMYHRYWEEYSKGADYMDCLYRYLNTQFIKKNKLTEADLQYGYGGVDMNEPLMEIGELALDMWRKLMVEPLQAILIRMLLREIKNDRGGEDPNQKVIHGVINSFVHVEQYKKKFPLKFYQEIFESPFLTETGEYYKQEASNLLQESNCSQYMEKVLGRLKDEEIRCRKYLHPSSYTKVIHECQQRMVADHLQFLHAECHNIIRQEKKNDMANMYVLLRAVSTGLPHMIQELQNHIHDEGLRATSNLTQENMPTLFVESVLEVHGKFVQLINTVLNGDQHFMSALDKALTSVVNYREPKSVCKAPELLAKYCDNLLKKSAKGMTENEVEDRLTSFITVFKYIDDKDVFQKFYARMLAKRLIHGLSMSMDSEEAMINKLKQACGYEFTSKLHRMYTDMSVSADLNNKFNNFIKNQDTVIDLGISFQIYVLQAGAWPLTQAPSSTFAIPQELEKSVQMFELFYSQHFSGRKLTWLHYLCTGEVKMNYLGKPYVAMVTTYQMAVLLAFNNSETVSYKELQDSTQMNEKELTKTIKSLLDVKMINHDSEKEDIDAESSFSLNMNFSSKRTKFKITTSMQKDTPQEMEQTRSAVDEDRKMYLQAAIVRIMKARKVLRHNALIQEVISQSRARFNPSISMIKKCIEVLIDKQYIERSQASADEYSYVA
VHL complex (VHL, Elongin B, Elongin C, Cul2, Rbx1), sequence (P62877 whole entry partner, looked up): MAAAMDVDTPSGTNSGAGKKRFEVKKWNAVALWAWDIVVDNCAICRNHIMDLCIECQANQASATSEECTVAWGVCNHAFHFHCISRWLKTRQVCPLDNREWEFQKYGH
Text: as §1, §2, §3, §4, §5

[6] = class symbols, read-out: Q46_RBA IC50

Structure (SMILES)	IC50 [1] [µM]	Kd [2] [µM]	Reduction of soluble mHTT Exon1-Q73 levels [3]	IC50 [1, 6] [µM]	Reduction of aggregated mHTT Exon1-Q73 levels [4]	Kd [5] [µM]
Cn1nc(-c2nc3cc(NC(=O)c4ccc(OCCOCCOCCOCCOCCOCCOCCOCCOCCNc5cccc6c5C(=O)N(C5CCC(=O)NC5=O)C6=O)cn4)ccc3o2)ccc1=O (centres unmarked) [Compound 38]	< 0.1	0.1 to 0.5	–	–	–	–
CNc1c(-c2cn3c(n2)sc2cc(OCCOCC(=O)N[C@@H](C(=O)N4C[C@@H](O)C[C@@H]4C(=O)NCc4ccc(-c5scnc5C)cc4)C(C)(C)C)ccc23)nc2cc(C#N)ccn12 [Compound 10]	< 0.1	–	less active	–	–	–
Cn1nc(-c2nc3cc(NC(=O)c4ccc(OCCOCCOCCNc5cccc6c5C(=O)N(C5CCC(=O)NC5=O)C6=O)cn4)ccc3o2)ccc1=O (centres unmarked) [Compound 33, 5-{2-[2-(2-{[2-(2,6-Dioxopiperidin-3-yl)-1,3-dioxo-2,3-dihydro-1H-isoindol-4-yl]amino}ethoxy)ethoxy]ethoxy}-N-[2-(1-methyl-6-oxo-1,6-dihydropyridazin-3-yl)-1,3-benzoxazol-5-yl]pyridine-2-carboxamide]	< 0.1	0.1 to 0.5	–	–	–	–
CN1C(=O)CCC(N2C(=O)c3cccc(NCCOCCOCCOc4ccc(COc5ccc6oc(-c7ccc(=O)n(C)n7)nc6c5)nc4)c3C2=O)C1=O (centres unmarked) [Compound 30]	< 0.1	> 0.5	–	–	–	–
CN1C(=O)CCC(N2C(=O)c3cccc(NCCOCCOCCOCCOCCOCCOCCOCCOCCOCCOCCOCCOc4ccc(C(=O)Nc5ccc6oc(-c7ccc(=O)n(C)n7)nc6c5)nc4)c3C2=O)C1=O (centres unmarked) [Compound 40]	–	> 0.5	–	< 0.1	–	–
CN1C(=O)CCC(N2C(=O)c3cccc(NCCOCCOCCOc4ccc(C(=O)Nc5ccc6oc(-c7ccc(=O)n(C)n7)nc6c5)nc4)c3C2=O)C1=O (centres unmarked) [Compound 70]	< 0.1	> 0.5	–	–	–	–
Cn1nc(-c2nc3cc(OCc4ccc(OCCOCCOCCNc5cccc6c5C(=O)N(C5CCC(=O)NC5=O)C6=O)cn4)ccc3o2)ccc1=O (centres unmarked) [Compound 31, 2-(2,6-Dioxopiperidin-3-yl)-4-({2-[2-(2-{[6-({[2-(1-methyl-6-oxo-1,6-dihydropyridazin-3-yl)-1,3-benzoxazol-5-yl]oxy}methyl)pyridin-3-yl]oxy}ethoxy)ethoxy]ethyl}amino)-2,3-dihydro-1H-isoindole-1,3-dione]	< 0.1	0.1 to 0.5	–	–	–	–
Cn1nc(-c2nc3cc(NC(=O)c4ccc(OCCOCCOCCOCCNc5cccc6c5C(=O)N(C5CCC(=O)NC5=O)C6=O)cn4)ccc3o2)ccc1=O (centres unmarked) [Compound 36]	< 0.1	0.1 to 0.5	–	–	–	–
Cn1nc(-c2nc3cc(NC(=O)c4ccc(OCCOCCOCCOCCOCCOCCOCCOCCOCCOCCOCCOCCOCCOCCOCCOCCNc5cccc6c5C(=O)N(C5CCC(=O)NC5=O)C6=O)cn4)ccc3o2)ccc1=O (centres unmarked) [Compound 37]	–	0.1 to 0.5	–	< 0.1	–	–
Cn1nc(-c2nc3cc(NC(=O)c4ccc(OCCOCCOCCOCCOCCOCCOCCOCCOCCOCCOCCOCCNc5cccc6c5C(=O)N(C5CCC(=O)NC5=O)C6=O)cn4)ccc3o2)ccc1=O (centres unmarked) [Compound 34]	–	> 0.5	–	< 0.1	–	–
CN1C(=O)CCC(N2C(=O)c3cccc(NCCOCCOCCOCCOCCOCCOc4ccc(C(=O)Nc5ccc6oc(-c7ccc(=O)n(C)n7)nc6c5)nc4)c3C2=O)C1=O (centres unmarked) [Compound 39]	< 0.1	> 0.5	–	–	–	–
Cn1nc(-c2nc3cc(NC(=O)c4ccc(OCCOCCOCCOCCOCCOCCNc5cccc6c5C(=O)N(C5CCC(=O)NC5=O)C6=O)cn4)ccc3o2)ccc1=O (centres unmarked) [Compound 32]	< 0.1	0.1 to 0.5	–	–	–	–
CNc1c(-c2cn3c(n2)sc2cc(OCCOCC(=O)N[C@H](C(=O)N4C[C@H](O)C[C@H]4C(=O)NCc4ccc(-c5scnc5C)cc4)C(C)(C)C)ccc23)nc2cc(C#N)ccn12 [Compound 1]	< 0.1	–	confirmed	–	confirmed	0.1 to 0.5
Cc1ncsc1-c1ccc(CNC(=O)[C@@H]2C[C@@H](O)CN2C(=O)[C@@H](NC(=O)CCOCCOCCOCCOc2ccc(C(=O)Nc3ccc4oc(-c5ccc(=O)n(C)n5)nc4c3)nc2)C(C)(C)C)cc1 [Compound 23]	< 0.1	–	–	–	–	< 0.1
COc1ccc(COc2ccc3oc(N4CCN(CCOCCOCCOCC(=O)N[C@H](C(=O)N5C[C@H](O)C[C@H]5C(=O)NCc5ccc(-c6scnc6C)cc5)C(C)(C)C)CC4)nc3c2)nc1 [Compound 55, (2S,4R)-1-((S)-2-(tert-butyl)-14-(4-(5-((5-methoxypyridin-2-yl)meth-oxy)benzo[d]oxazol-2-yl)piperazin-1-yl)-4-oxo-6,9,12-trioxa-3-azatetradecanoyl)-4-hydroxy-N-(4-(4-methylthiazol-5-yl)benzyl)pyrrolidine-2-carboxamide]	0.1 to 0.5	–	–	–	–	0.1 to 0.5
